Read-outs that look alike come from different tables or passages of the source.
Assays:
[1] = molecular target: T1, PhKAT (Pyrococcus horikoshii, UniProt O57946); assay: Spectrophotometric titration of PhKAT with PLP (absorbance change at 360 nm, 2-site binding model with hill slopes); set-up: species or system Pyrococcus horikoshii OT3; conditions: 25°C
Description: PhKAT was added to a 20 µM (final concentration) PLP solution in a final volume of 500 µL of 50 mM HEPES–NaOH buffer (pH 7.5) containing 100 mM NaCl. Titration of PhKAT with PLP was monitored by absorption spectroscopy. Aliquots of PLP (1, 2, 4, 8, 16, 32, and 64 µM) were added to the cuvette containing PhKAT at 25°C. Spectra were recorded after the addition of PLP, and the PLP-binding constant (K d) was calculated from the difference in absorbance at 360 nm, and the PLP-binding curve for PhKAT was obtained by the 2-site binding model with variable slopes using prism5.

[2] = molecular target: T1, PhKAT; assay: Isothermal titration calorimetry for cofactor and substrate binding; set-up: species or system Pyrococcus horikoshii OT3; conditions: PLP binding to PhKAT; judged from shape of binding curve
Excerpt: To avoid air bubbles, we degassed solutions under vacuum before use. […] Power peaks were integrated, and the resultant reaction […] were plotted against the molar cofactor and/or substrate/protein ratios and fitted using the “sequential binding sites” model according to the manufacturer's instructions with origin version 5.0 (MicroCal Software), thus yielding the dissociation constant K d.

[3] = molecular target: T1, PhKAT; assay: KAT transaminase kinetics, KYNA production from KYN monitored at 332 nm; conditions: 100 µM KYN; keto acid as amino acceptor
Description: KYNA production was monitored spectrophotometrically using a U-2810 UV–Vis spectrophotometer (Hitachi).
The transaminase abilities of KAT were assayed by measuring the rate of the KYNA production. […] KYNA production was monitored by the increase in A332 at 25°C. The quantities of KYNA were determined spectroscopically with an extinction coefficient of 9.8 mM^−1⋅cm^−1 at 332 nm.

[4] = substrate: CSCCC(=O)C(=O)O; assay: purified protein, by the assay type; conditions: other: 100 µM KYN; keto acid as amino acceptor; pH 7.5; 25.0 °C
Description: (§1) PLP-dependent KAT activity was assayed in 500 µL of 50 mM HEPES–NaOH buffer (pH 7.5) containing 100 mM NaCl, 10 µM PhKAT, 15 µM PLP, 20 µM KYN, and 64 µM 2OG. Assays were performed at room temperature (25°C), and the reaction was initiated by the addition of 2OG. KYNA production was monitored spectrophotometrically using a U-2810 UV–Vis spectrophotometer (Hitachi).
(§2) The transaminase abilities of KAT were assayed by measuring the rate of the KYNA production. In a total volume of 500 µL, the reaction mixture contained 10 µM PhKAT (dimer: 5 µM); 12 µM PLP; 0.08, 0.1, 0.4, 0.8, 1, 1.2, 2, 4, 6, 8, 12, 16, 20 and 24 µM 2OG; 0.02, 0.08, 0.1, 0.4, 0.8, 1, 1.2, 2, 4, 6, 8, 12, 16, 20 and 24 µM OXA; 50, or 100 µM KYN; 50 mM HEPES–NaOH buffer (pH 7.5); 100 mM NaCl; 0.4, 0.8, 1, 4, 8, 12 and 16 µM α-KMB, and/or 0.4, 0.8, 1, 4, 8, 12, 16 and 20 µM α-KBA. KYNA production was monitored by the increase in A332 at 25°C. The quantities of KYNA were determined spectroscopically with an extinction coefficient of 9.8 mM^−1⋅cm^−1 at 332 nm.

[5] = substrate: CCC(=O)C(=O)O; assay: purified protein, by the assay type; conditions: other: 100 µM KYN; keto acid as amino acceptor; pH 7.5; 25.0 °C
Description: as §1, §2

[6] = molecular target: the molecule itself; assay: crystal structure; co-crystals of PhKAT with PLP (1:1), PLP and 2OG (1:1:1 or 1:1:2), sitting-drop vapor diffusion at 4°C; space group C2, two chains in the asymmetric unit

How did the Kd ([1]; 10 µM PhKAT, pH 7.5, read-out: Kd1 (dissociation constant for PLP, first binding site)) turn out when `Cc1ncc(COP(=O)(O)O)c(C=O)c1O` [PLP, Pyridoxal phosphate] was run?
The Kd was 25.5 µM.

And the Kd ([1]; 10 µM PhKAT, pH 7.5, read-out: Kd2 (dissociation constant for PLP, second binding site))?
Its Kd is 1.77 µM.

What about the Kd ([1]; 20 µM PhKAT, pH 7.5, read-out: Kd1 (dissociation constant for PLP, first binding site)) of the same molecule?
The Kd was 9.65 µM.

And the Kd ([1]; 20 µM PhKAT, pH 7.5, read-out: Kd2 (dissociation constant for PLP, second binding site))?
Its Kd is 1.92 µM.

And the “dissociation constant (apparent) of second binding site in PhKAT” value [2]?
Its value is “approximately femtomole order”.

For `CCC(=O)C(=O)O` [α-KBA, 2-ketobutyric acid], which “H-value (allosteric sigmoidal model)” value [3] is on record?
Its value is 1.79.

Which “H-value (allosteric sigmoidal model)” value [3] does the source give for `CSCCC(=O)C(=O)O` [α-KMB, α-keto-γ-(methylthio) butyric acid] here?
Its value is 3.57.

B1: PhKAT (Pyrococcus horikoshii OT3) (protein)
chain: MHEDVQLNIYVHSQEGIGMEENIKSMLGDVERFFSKKALEMRASEVRELLKLVETSDIISLAGGLPNPKTFPKEIIRDILVEIMEKYADKALQYGTTKGFTPLRETLMKWLGKRYGISQDNDIMITSGSQQALDLIGRVFLNPGDIVVVEAPTYLAALQAFNFYEPQYIQIPLDDEGMKVEILEEKLKELKSQGKKVKVVYTVPTFQNPAGVTMNEDRRKYLLELASEYDFIVVEDDPYGELRYSGNPEKKIKALDNEGRVIYLGTFSKILAPGFRIGWMVGDPGIIRKMEIAKQSTDLCTNVFGQVVAWRYVDGGYLEKHIPEIRKFYKPRRDAMLEALEEFMPEGVKWTKPEGGMFIWVTLPDGIDSKKMLERAIKKGVAYVPGEAFYAHRDVKNTMRLNFTYVDEDKIMEGIKRLAETIKEELKA
Which Km [4] does the source give for B1 here?
Its Km is 2.41 µM.

What about the Km [5] of the same molecule?
The Km was 1.73 µM.

B2: Kynurenine aminotransferase from Pyrococcus horikoshii OT3 (enzyme, UniProt O57946 1-428, looked up)
chain: MHEDVQLNIYVHSQEGIGMEENIKSMLGDVERFFSKKALEMRASEVRELLKLVETSDIISLAGGLPNPKTFPKEIIRDILVEIMEKYADKALQYGTTKGFTPLRETLMKWLGKRYGISQDNDIMITSGSQQALDLIGRVFLNPGDIVVVEAPTYLAALQAFNFYEPQYIQIPLDDEGMKVEILEEKLKELKSQGKKVKVVYTVPTFQNPAGVTMNEDRRKYLLELASEYDFIVVEDDPYGELRYSGNPEKKIKALDNEGRVIYLGTFSKILAPGFRIGWMVGDPGIIRKMEIAKQSTDLCTNVFGQVVAWRYVDGGYLEKHIPEIRKFYKPRRDAMLEALEEFMPEGVKWTKPEGGMFIWVTLPDGIDSKKMLERAIKKGVAYVPGEAFYAHRDVKNTMRLNFTYVDEDKIMEGIKRLAETIKEELKA
modifications: PLP in a Schiff-base link with Lys269
notes: Kynurenine aminotransferase (PhKAT) of Pyrococcus horikoshii OT3, 428 residues; residues 25-428 seen in the crystal structures, residues 1-24 and the N-terminal His-tag disordered; also called PhKAT; KAT; source: E. coli BL21-CodonPlus (DE3), pET28a-PhKAT, purified (His TALON cartridge); not shown: His6, N-terminal, kept
Which “stoichiometry N” value [6] does the source give for B2 here?
The value was 2.
